In US20210401833A1 (IMBRIA PHARMACEUTICALS, INC., priority 2020, published 2021):
Values after ≈ are worked out from the molar mass of the structure shown. Like-named read-outs stand apart in the source and are kept apart here.

Assays:
[1] = 28-day dog study (nonclinical toxicology, NOAEL); assay type: in vivo; details: for AUC(0-t): po, 200 mg/kg/day
Protocol: Based on the nonclinical toxicology data, it was considered that subjects in this clinical study were not at unreasonable risk of adverse effects. […] For a 60-kg individual, the NOAEL dose would be 6480 mg. With a 10-fold safety factor applied, this would allow for a maximum recommended starting dose (MRSD) of 648 mg/day. 7,8 The planned starting dose in the current Phase 1 study was 50 mg, equivalent to 0.83 mg/kg/day for a 60-kg subject. This starting dose is less than 10% of the MRSD determined from the dog NOAEL and less than 1% of the dog NOAEL
The relevant animal study was the 28-day dog study where the NOAEL for IMB-1018972 was 200 mg/kg/day.

[2] = human, in vivo, 150 mg
From the text: (§1) Data on the performance of the method and stability indicate that the sample results as reported are reliable.

clinical = details: human, in vivo; for AUC0-t higher after the 8-hour MR formulation than after the 4-hour MR formulation / AUC0-t lower after the 8-hour MR formulation than after the 4-hour MR formulation / Tmax: po
From the text: The blood samples were taken via an indwelling intravenous catheter or by direct venipuncture.
The effect of food on the relative oral bioavailability of IMB-1018972 following a single oral administration was explored. This occurred in the single-dose MR part where subjects received the same dose, first under fasted conditions and then under fed conditions.

[3] = aqueous solubility of CV-8972; assay type: physicochemical; details: aqueous solution, aqueous buffer
From the text: FIG. 2 is graph of the aqueous solubility of CV-8972 as a function of pH generated via dynamic methods due to instability.

[4] = Phase 1 first-in-human study, single-dose MR part, safety and tolerability; assay type: in vivo
Protocol: The subjects received a single oral dose of 1 of 4 MR formulations of IMB-1018972 under fasted conditions (an overnight fast of at least 10 hours) on Days 1, 4, 7, and 10 in a fixed order that was the same for all subjects. The MR formulation of IMB-1018972 to be administered on Day 13 under fed conditions was 1 of the 4 MR formulations administered on Days 1, 4, 7, and 10 under fasted conditions.
(§2) AEs were recorded from (first) admission until completion of the follow-up visit. Any clinically significant observations in results of clinical laboratory, 12-lead ECGs, vital signs, or physical examinations were recorded as AEs.
(§3) A treatment-emergent AE (TEAE) was defined as any event not present prior to (the first) administration of the study drug or any event already present that worsened in either severity or frequency following exposure to the study drug.
(§4) The severity of the AEs was rated as mild, moderate, or severe; the relationship between the AEs and the study drug was indicated as none, unlikely, possibly, likely, or definitely. Adverse events assessed as possibly, likely, or definitely were considered related to the study drug; AEs assessed as none or unlikely were considered not related to the study drug.

[5] = solution stability (decomposition kinetics) in simulated GI media at 37° C. and 0.2 mg/mL, HPLC; assay type: physicochemical
Protocol: The solution stability of CV-8972 was evaluated in multiple media currently used to simulate dissolution and stability conditions in the various sections of the GI tract. As CV-8972 will be subject to hydrolysis as it is dissolving in the GI tract, it will be important to understand these kinetics in terms of designing instant and controlled-release formulations. HPLC methods were used to perform these assessments.
In summary, there may be some protective effect of the components of the FaSSGF, FaSSIF, and FeSSIF, particularly when compared to stability in 0.1N HCl or bicarbonate or phosphate buffer at pH 6-8. On the positive side, the fastest decomposition rate still has a T1/2 of 1.5 hours which should provide enough residence time for release and absorption in the upper GI tract.

[6] = Phase 1 first-in-human study, overall safety; assay type: in vivo; details: after administration as the MR formulations
Protocol: Safety and tolerability were assessed through AEs, clinical laboratory, vital signs, ECGs, continuous cardiac monitoring (telemetry), and physical examination findings, and any other parameter that was relevant for safety assessment.

[7] = Phase 1 first-in-human study, combined single and multiple IMB-1018972 dose results (SAD, MAD, FE, MR), plasma and urine PK; details: plasma of subjects that received IMB-1018972
From the text: as §1

CaCo2 = assay: in vitro CaCo2 permeability; assay type: in vitro ADME
[8] = in vitro CaCo2 permeability; assay type: in vitro ADME; details: human, Caco-2
[9] = in vitro stability in biological media across species; assay type: in vitro ADME
From the text: Additional and extensive in vitro stability work has been carried out across species to evaluate the impact of GI tract, liver tissues, and plasma on half-life as measured by in vitro clearance of CV-8972 in various biological media.

[10] = Phase 1 first-in-human study, multiple-dose MR part, safety and tolerability; assay type: in vivo
Protocol: as §2, §3, §4

[11] = pH stability profile of a 1 mg/mL solution of CV-8972 at 23° C.; assay type: physicochemical; details: for 1st order Kobs / % lost in 25 hrs / Amt. remaining / T5% / T10%: 1 mg/mL, 23° C.
Protocol: The pH stability profile is summarized and shown in Table 2 for a 1 mg/mL solution of CV-8972 at 23° C.
The hydrolysis proceeds via the first step shown in FIG. 1, as Nicotinic acid and CV-8814 are the only decomposition products generated. The optimal pH for solution stability appears to be around pH 5-5.1 for a 1 mg/mL solution with acid-catalyzed hydrolysis increasing at pH values less than 5.0 and base-catalyzed hydrolysis increasing above pH 5.0.

COc1ccc(CN2CCN(CCO)CC2)c(OC)c1OC [CV-8814, 2-[4-[(2,3,4-trimethoxyphenyl)methyl]piperazin-1-yl]ethanol]
AUC(0-t) ([1]; female, dog, in vivo): 653 µg·h/mL
AUC(0-t) ([1]; male, dog, in vivo): 418 µg·h/mL
Cmax lower under fed conditions relative to fasted conditions [2]: approximately 36%
half-life (clinical): 3.35 to 4.27 h
Cmax higher under fed conditions relative to fasted conditions (clinical; 200 mg): approximately 42%
AUC0-t higher after the 8-hour MR formulation than after the 4-hour MR formulation (clinical): 6%
AUC0-t lower after the 8-hour MR formulation than after the 4-hour MR formulation (clinical): 26%
Tmax (clinical; 200 mg): 2 h

COc1ccc(CN2CCN(CCOC(=O)c3cccnc3)CC2)c(OC)c1OC [CV-8972, 2-[4-[(2,3,4-trimethoxyphenyl)methyl]piperazin-1-yl]ethyl pyridine-3-carboxylate]
solubility ([3]; free base, read-out: saturated base solubility / minimal solubility as the free base): 5000 to 10000 µg/mL (≈ 12 to 24.1 mM)
solubility ([3]; salt, read-out: solubility as the salt): > 100000 µg/mL
NOAEL at 28 days ([1]; dog, in vivo): 108 mg/kg/day
maximum recommended starting dose (MRSD) ([1]; dog, in vivo, 28 days): 648 mg/day
NOAEL dose for a 60-kg individual ([1]; from HED): 6480 mg
NOAEL at 28 days ([1]; in vivo, 28-day dog, oral, read-out: no observed adverse effect level (NOAEL)): 200 mg/kg/day
TEAEs of flushing [4]: No TEAEs of flushing were reported
difference between fasted and fed administration for the number and incidence of TEAEs [4]: no clear difference
dose or dissolution time dependency of the number and incidence of TEAEs [4]: no apparent dose or dissolution time dependency
number of TEAEs considered not related to the study drug [4]: 30
number of TEAEs considered related to the study drug [4]: 7
number of TEAEs, SOC Gastrointestinal disorders [4]: 5
number of TEAEs, SOC General disorders and administration site conditions [4]: 11
number of TEAEs, SOC Nervous system disorders [4]: 8
number of drug-related TEAEs of ALT increased [4]: 1
number of drug-related TEAEs of headache [4]: 1
number of drug-related TEAEs of pollakiuria [4]: 5
severe TEAEs [4]: No severe TEAEs were reported
subjects n (%) with drug-related pollakiuria [4]: 2 (16.7%)
subjects n (%), SOC Gastrointestinal disorders [4]: 4 (33.3%)
subjects n (%), SOC General disorders and administration site conditions [4]: 7 (58.3%)
subjects n (%), SOC Nervous system disorders [4]: 7 (58.3%)
total number of TEAEs ([4]; all treatments): 37
Est Kobs (first order rate constant for hydrolysis) ([5]; 0.1 M HCl, pH 1.0, no surfactants): 0.221 h⁻¹
Est Kobs (first order rate constant for hydrolysis) ([5]; BiCarb adj (0.1 M HCl neutralized with sodium bicarbonate), pH 6-8.2, no surfactants): 0.456 h⁻¹
Est Kobs (first order rate constant for hydrolysis) ([5]; FaSSGF, pH 1.6): 0.0143 h⁻¹
Est Kobs (first order rate constant for hydrolysis) ([5]; FaSSIF, pH 6.5): 0.05124 h⁻¹
Est Kobs (first order rate constant for hydrolysis) ([5]; FeSSIF, pH 5.8): 0.00696 h⁻¹
half-life at 0.2 mg/mL ([5]; bicarbonate-adjusted medium (BiCarb adj), BiCarb adj, pH 6-8.2 (fastest decomposition rate)): 1.5 h
hemodynamic changes and changes in the QTc-interval [6]: no findings of hemodynamic changes, nor changes in the QTc-interval
IMB-1018972 in plasma samples [7]: could be measured in only few plasma samples
efflux (CaCo2): little evidence of efflux
Papp [8]: ~29 ×10⁻⁶ cm/s
stability in GI tract, liver tissues and plasma (in vitro clearance) [9]: relatively unstable in the GI tract
number of TEAEs considered not related to the study drug [10]: 30
number of TEAEs considered related to the study drug [10]: 10
number of TEAEs, SOC Gastrointestinal disorders [10]: 9
number of TEAEs, SOC General disorders and administration site conditions [10]: 4
number of TEAEs, SOC Musculoskeletal and connective tissue disorders [10]: 4
number of TEAEs, SOC Nervous system disorders [10]: 9
number of TEAEs, SOC Renal and urinary disorders (pollakiuria) [10]: 4
number of drug-related TEAEs of pollakiuria [10]: 4
number of drug-related TEAEs, Nervous system disorders [10]: 2
severity of TEAEs [10]: All TEAEs were of mild severity
subjects n (%) with drug-related Nervous system disorders [10]: 2 (16.7%)
subjects n (%) with drug-related pollakiuria [10]: 4 (33.3%)
subjects n (%), SOC Gastrointestinal disorders [10]: 5 (41.7%)
subjects n (%), SOC General disorders and administration site conditions [10]: 4 (33.3%)
subjects n (%), SOC Musculoskeletal and connective tissue disorders [10]: 4 (33.3%)
subjects n (%), SOC Nervous system disorders [10]: 7 (58.3%)
subjects n (%), SOC Renal and urinary disorders (pollakiuria) [10]: 4 (33.3%)
total number of TEAEs [10]: 40
subjects reporting flushing ([10]; mild severity): 2 (16.7%)
number of TEAEs of flushing ([10]; mild severity, drug-related): 2
optimal pH for solution stability ([11]; 1 mg/mL solution): 5-5.1
1st order Kobs ([11]; pH 2.74, Water): 0.00516 h⁻¹
% lost in 25 hrs ([11]; pH 2.74, Water): 12.1%
Amt. remaining ([11]; pH 2.74, Water): 0.879 mg/mL
T5% ([11]; pH 2.74, Water): 9.9 h
T10% ([11]; pH 2.74, Water): 20.4 h
1st order Kobs ([11]; pH 3.52, 20 mM Phos): 0.00273 h⁻¹
% lost in 25 hrs ([11]; pH 3.52, 20 mM Phos): 6.6%
Amt. remaining ([11]; pH 3.52, 20 mM Phos): 0.934 mg/mL
T5% ([11]; pH 3.52, 20 mM Phos): 18.8 h
T10% ([11]; pH 3.52, 20 mM Phos): 38.6 h
1st order Kobs ([11]; pH 5.05, 20 mM Am. Acetate): 0.00105 h⁻¹
% lost in 25 hrs ([11]; pH 5.05, 20 mM Am. Acetate): 2.6%
Amt. remaining ([11]; pH 5.05, 20 mM Am. Acetate): 0.974 mg/mL
T5% ([11]; pH 5.05, 20 mM Am. Acetate): 48.7 h
T10% ([11]; pH 5.05, 20 mM Am. Acetate): 100.0 h
1st order Kobs ([11]; pH 5.64, 20 mM Phos): 0.00248 h⁻¹
% lost in 25 hrs ([11]; pH 5.64, 20 mM Phos): 6.0%
Amt. remaining ([11]; pH 5.64, 20 mM Phos): 0.94 mg/mL
T5% ([11]; pH 5.64, 20 mM Phos): 20.7 h
T10% ([11]; pH 5.64, 20 mM Phos): 42.6 h
1st order Kobs ([11]; pH 6.5, 20 mM Phos): 0.01119 h⁻¹
% lost in 25 hrs ([11]; pH 6.5, 20 mM Phos): 24.4%
Amt. remaining ([11]; pH 6.5, 20 mM Phos): 0.756 mg/mL
T5% ([11]; pH 6.5, 20 mM Phos): 4.6 h
T10% ([11]; pH 6.5, 20 mM Phos): 9.4 h
1st order Kobs ([11]; pH 6.88, 20 mM Phos): 0.02064 h⁻¹
% lost in 25 hrs ([11]; pH 6.88, 20 mM Phos): 40.3%
Amt. remaining ([11]; pH 6.88, 20 mM Phos): 0.597 mg/mL
T5% ([11]; pH 6.88, 20 mM Phos): 2.5 h
T10% ([11]; pH 6.88, 20 mM Phos): 5.1 h

COc1ccc(CN2CCNCC2)c(OC)c1OC [trimetazidine, reference compound]
AUC(0-t) ([1]; female, dog, in vivo): 13.8 µg·h/mL
AUC(0-t) ([1]; male, dog, in vivo): 15 µg·h/mL
half-life (clinical): 8.11 to 9.35 h
AUC0-t higher after the 8-hour MR formulation than after the 4-hour MR formulation (clinical): 4%
AUC0-t lower after the 8-hour MR formulation than after the 4-hour MR formulation (clinical): 12%
Tmax (clinical; 50 mg): 8 h
Tmax (clinical; 200 mg): 5 h
